# Results published in PubChem BioAssay (NCI).
#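 Where inhibition never reached the appropriate level, the endpoint shown equals the highest concentration tested. Otherwise, values were interpolated linearly from a five-concentration, 48-hour dose response in 96-well plates. GI50 marks 50% less growth. At the TGI there is no net growth.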
# Tests used:
# Assay in all cases: inhibition of tumour cell growth, NCI panel, 48 h
# [1] = test system: ACHN renal
# [2] = test system: A549 NSCLC
# [3] = test system: HOP-62 NSCLC
# [4] = test system: T-47D breast
# [5] = test system: SK-MEL-5 melanoma
# [6] = test system: BT-549 breast
# [7] = test system: HCT-15 colon
# [8] = test system: NCI-H460 lung
# [9] = test system: SK-MEL-2 melanoma
# [10] = test system: EKVX NSCLC
# [11] = test system: HS 578T breast
# [12] = test system: SNB-19 CNS
# [13] = test system: UACC-257 melanoma
# [14] = test system: MDA-MB-468 breast
# [15] = test system: RPMI-8226 leukemia
# [16] = test system: OVCAR-5 ovarian
# [17] = test system: HL-60(TB) leukemia
# [18] = test system: CAKI-1 renal
# [19] = test system: UACC-62 melanoma
# [20] = test system: SF-295 CNS
# [21] = test system: TK-10 renal
# [22] = test system: SW-620 colon
# [23] = test system: SK-OV-3 ovarian
# [24] = test system: MALME-3M melanoma
# [25] = test system: SNB-75 CNS
# [26] = test system: HCT-116 colon
# [27] = test system: U251 CNS
# [28] = test system: KM12 colon
# [29] = test system: HT29 colon
# [30] = test system: HOP-92 NSCLC
# [31] = test system: MOLT-4 leukemia
# [32] = test system: K-562 leukemia
# [33] = test system: DU-145 prostate
# [34] = test system: SF-268 CNS
# [35] = test system: RXF 393 renal
# [36] = test system: UO-31 renal
# [37] = test system: NCI-H522 lung
# [38] = test system: OVCAR-3 ovarian
# [39] = test system: MDA-MB-231 breast
# [40] = test system: IGROV1 ovarian
# [41] = test system: NCI-H23 lung
# [42] = test system: A498 renal
# [43] = test system: OVCAR-8 ovarian
# [44] = test system: SN12C renal
# [45] = test system: M14 melanoma
# [46] = test system: COLO 205 colon
# [47] = test system: NCI-H226 lung
# [48] = test system: SK-MEL-28 melanoma
# [49] = test system: MCF7 breast
# [50] = test system: LOX IMVI melanoma
# [51] = test system: PC-3 prostate
# [52] = test system: 786-0 renal
# [53] = test system: CCRF-CEM leukemia
# [54] = test system: NCI/ADR-RES ovarian
# [55] = test system: OVCAR-4 ovarian
# [56] = test system: MDA-MB-435
# [57] = test system: SF-539 CNS
# [58] = test system: HCC-2998 colon
smiles,measurement,setting,value
COC(=O)C[C@](O)(CCCC(C)C)C(=O)O[C@H]1C(OC)=C[C@@]23CCCN2CCc2cc4c(cc2[C@@H]13)OCO4,GI50,[1],1210 nM
same,TGI,[1],6610 nM
same,GI50,[2],1390 nM
same,TGI,[2],17700 nM
same,GI50,[3],2800 nM
same,TGI,[3],30000 nM
same,GI50,[4],1620 nM
same,TGI,[4],31800 nM
same,GI50,[5],823 nM
same,TGI,[5],2450 nM
same,GI50,[6],995 nM
same,TGI,[6],3740 nM
same,GI50,[7],1130 nM
same,TGI,[7],4220 nM
same,GI50,[8],695 nM
same,TGI,[8],4780 nM
same,GI50,[9],3960 nM
same,TGI,[9],12700 nM
same,GI50,[10],2290 nM
same,TGI,[10],18100 nM
same,GI50,[11],2120 nM
same,TGI,[11],18500 nM
same,GI50,[12],917 nM
same,TGI,[12],6240 nM
same,GI50,[13],2160 nM
same,TGI,[13],15600 nM
same,GI50,[14],869 nM
same,TGI,[14],3200 nM
same,GI50,[15],1050 nM
same,TGI,[15],2990 nM
same,GI50,[16],2560 nM
same,TGI,[16],15400 nM
same,GI50,[17],771 nM
same,TGI,[17],2270 nM
same,GI50,[18],2410 nM
same,TGI,[18],35200 nM
same,GI50,[19],3150 nM
same,TGI,[19],16600 nM
same,GI50,[20],1490 nM
same,TGI,[20],11600 nM
same,GI50,[21],4120 nM
same,TGI,[21],27300 nM
same,GI50,[22],1490 nM
same,TGI,[22],32500 nM
same,GI50,[23],1620 nM
same,TGI,[23],38200 nM
same,GI50,[24],888 nM
same,TGI,[24],3220 nM
same,GI50,[25],1970 nM
same,TGI,[25],13900 nM
same,GI50,[26],992 nM
same,TGI,[26],5440 nM
same,GI50,[27],1210 nM
same,TGI,[27],11800 nM
same,GI50,[28],1540 nM
same,TGI,[28],21600 nM
same,GI50,[29],1160 nM
same,TGI,[29],5990 nM
same,GI50,[30],2300 nM
same,TGI,[30],18600 nM
same,GI50,[31],699 nM
same,TGI,[31],3400 nM
same,GI50,[32],1140 nM
same,TGI,[32],11100 nM
same,GI50,[33],1910 nM
same,TGI,[33],17900 nM
same,GI50,[34],5010 nM
same,TGI,[34],22800 nM
same,GI50,[35],641 nM
same,TGI,[35],2180 nM
same,GI50,[36],1070 nM
same,TGI,[36],11200 nM
same,GI50,[37],1030 nM
same,TGI,[37],2970 nM
same,GI50,[38],1130 nM
same,TGI,[38],8520 nM
same,GI50,[39],3880 nM
same,TGI,[39],14600 nM
same,GI50,[40],1770 nM
same,TGI,[40],18800 nM
same,GI50,[41],1350 nM
same,TGI,[41],6660 nM
same,GI50,[42],776 nM
same,TGI,[42],5780 nM
same,GI50,[43],1790 nM
same,TGI,[43],19700 nM
same,GI50,[44],3620 nM
same,TGI,[44],23200 nM
same,GI50,[45],1140 nM
same,TGI,[45],4660 nM
same,GI50,[46],1790 nM
same,TGI,[46],8730 nM
same,GI50,[47],940 nM
same,TGI,[47],7230 nM
same,GI50,[48],1290 nM
same,TGI,[48],8710 nM
same,GI50,[49],751 nM
same,TGI,[49],2790 nM
same,GI50,[50],852 nM
same,TGI,[50],4450 nM
same,GI50,[51],1380 nM
same,TGI,[51],14600 nM
same,GI50,[52],1960 nM
same,TGI,[52],14300 nM
same,GI50,[53],1020 nM
same,TGI,[53],7080 nM
same,GI50,[54],2550 nM
same,TGI,[54],19000 nM
same,GI50,[55],1640 nM
same,TGI,[55],17000 nM
same,GI50,[56],1830 nM
same,TGI,[56],12900 nM
same,GI50,[57],838 nM
same,TGI,[57],2240 nM
same,GI50,[58],723 nM
same,TGI,[58],2710 nM
